# Measurements reported in article PMC11079024, “Identification of a family of species-selective complex I inhibitors as potential anthelmintics” (Nature Communications, 2024).
# Values joined by “and” are separate entries in the source; they are usually repeats but may differ in a detail not shown here. Equal entries are not always repeated.
# What was measured:
# [1] = target: C. elegans (N2) complex I (NADH:ubiquinone oxidoreductase) (Caenorhabditis elegans, UniProt P24887+Q93873+Q94360); assay: biochemical; assay type: biochemical; conditions: for % Activity Complex I: 100 µM compound, relative to solvent control, mean (SEM); for Percent in vitro activity, Complex I (single replicate Rep1-Rep4) / Percent in vitro activity, Complex I (Mean): 100 μM of NPD compound, C. elegans mitochondria; for Percent in vitro activity, Complex I (single replicate Rep1-Rep4): individual biological replicates; for Percent in vitro activity, Complex I (Mean): mean of four biological replicates
# C. elegans (N2) complex I (NADH:ubiquinone oxidoreductase), sequence (Q94360 17-199): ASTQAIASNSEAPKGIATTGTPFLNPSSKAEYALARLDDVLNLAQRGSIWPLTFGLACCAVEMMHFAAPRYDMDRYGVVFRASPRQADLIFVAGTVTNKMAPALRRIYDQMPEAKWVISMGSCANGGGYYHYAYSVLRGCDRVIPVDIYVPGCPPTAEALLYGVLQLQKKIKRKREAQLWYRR
# C. elegans (N2) complex I (NADH:ubiquinone oxidoreductase), sequence (P24887 whole entry): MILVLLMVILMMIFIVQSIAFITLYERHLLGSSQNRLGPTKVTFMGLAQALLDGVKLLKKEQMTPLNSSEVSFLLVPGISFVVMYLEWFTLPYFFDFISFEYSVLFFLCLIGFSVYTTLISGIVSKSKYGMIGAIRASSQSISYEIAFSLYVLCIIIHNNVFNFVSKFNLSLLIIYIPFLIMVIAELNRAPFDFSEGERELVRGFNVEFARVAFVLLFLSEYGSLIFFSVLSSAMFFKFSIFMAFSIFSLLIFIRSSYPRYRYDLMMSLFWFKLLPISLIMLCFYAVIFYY
# C. elegans (N2) complex I (NADH:ubiquinone oxidoreductase), sequence (Q93873 31-482): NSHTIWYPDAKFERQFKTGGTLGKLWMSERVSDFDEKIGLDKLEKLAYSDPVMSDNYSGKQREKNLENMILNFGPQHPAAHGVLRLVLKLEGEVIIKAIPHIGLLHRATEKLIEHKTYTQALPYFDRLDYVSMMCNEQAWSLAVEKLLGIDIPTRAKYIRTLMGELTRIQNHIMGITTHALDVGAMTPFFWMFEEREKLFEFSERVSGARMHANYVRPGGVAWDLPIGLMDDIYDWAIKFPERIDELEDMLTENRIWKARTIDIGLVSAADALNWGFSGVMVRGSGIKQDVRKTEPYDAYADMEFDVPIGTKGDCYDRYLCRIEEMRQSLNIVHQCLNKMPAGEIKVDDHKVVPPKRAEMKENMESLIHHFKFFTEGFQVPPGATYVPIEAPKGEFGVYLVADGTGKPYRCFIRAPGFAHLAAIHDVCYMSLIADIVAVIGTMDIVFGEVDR
# Procedure, shortened: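 Activity expressed as percent of solvent control. Complex I rate came from DCIP reduction at 600 nm (initial linear slope, 15 min) with NADH and decylubiquinone as substrates, plus antimycin A and KCN, in pH 7.5 KPi/BSA buffer. Isolated, thrice freeze-thawed mitochondria used at 0.2 mg/mL.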
# [2] = target: C. elegans complex II (succinate dehydrogenase) (Caenorhabditis elegans, UniProt O62215+P41956+Q09545); assay: In vitro complex II activity assay, C. elegans mitochondria; assay type: biochemical; conditions: for % Activity Complex II: 100 µM compound, relative to solvent control, mean (SEM); for Percent in vitro activity, Complex II (single replicate Rep1-Rep4) / Percent in vitro activity, Complex II (Mean): 100 μM of NPD compound, C. elegans mitochondria; for Percent in vitro activity, Complex II (single replicate Rep1-Rep4): individual biological replicates; for Percent in vitro activity, Complex II (Mean): mean of four biological replicates
# C. elegans complex II (succinate dehydrogenase), sequence (P41956 30-182): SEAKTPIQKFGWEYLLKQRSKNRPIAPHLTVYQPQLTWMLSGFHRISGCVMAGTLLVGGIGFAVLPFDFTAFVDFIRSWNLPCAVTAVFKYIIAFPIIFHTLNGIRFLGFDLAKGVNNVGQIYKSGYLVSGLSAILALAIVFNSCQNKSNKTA
# C. elegans complex II (succinate dehydrogenase), sequence (Q09545 22-298): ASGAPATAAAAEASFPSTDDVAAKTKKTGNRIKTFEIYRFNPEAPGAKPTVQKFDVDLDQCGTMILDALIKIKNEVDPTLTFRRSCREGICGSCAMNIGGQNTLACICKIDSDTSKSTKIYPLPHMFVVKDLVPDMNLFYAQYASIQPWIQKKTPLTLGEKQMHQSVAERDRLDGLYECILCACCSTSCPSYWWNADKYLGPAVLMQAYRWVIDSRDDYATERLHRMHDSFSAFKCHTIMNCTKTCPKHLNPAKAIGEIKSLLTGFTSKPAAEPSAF
# C. elegans complex II (succinate dehydrogenase), sequence (Q09508 32-646, further chain): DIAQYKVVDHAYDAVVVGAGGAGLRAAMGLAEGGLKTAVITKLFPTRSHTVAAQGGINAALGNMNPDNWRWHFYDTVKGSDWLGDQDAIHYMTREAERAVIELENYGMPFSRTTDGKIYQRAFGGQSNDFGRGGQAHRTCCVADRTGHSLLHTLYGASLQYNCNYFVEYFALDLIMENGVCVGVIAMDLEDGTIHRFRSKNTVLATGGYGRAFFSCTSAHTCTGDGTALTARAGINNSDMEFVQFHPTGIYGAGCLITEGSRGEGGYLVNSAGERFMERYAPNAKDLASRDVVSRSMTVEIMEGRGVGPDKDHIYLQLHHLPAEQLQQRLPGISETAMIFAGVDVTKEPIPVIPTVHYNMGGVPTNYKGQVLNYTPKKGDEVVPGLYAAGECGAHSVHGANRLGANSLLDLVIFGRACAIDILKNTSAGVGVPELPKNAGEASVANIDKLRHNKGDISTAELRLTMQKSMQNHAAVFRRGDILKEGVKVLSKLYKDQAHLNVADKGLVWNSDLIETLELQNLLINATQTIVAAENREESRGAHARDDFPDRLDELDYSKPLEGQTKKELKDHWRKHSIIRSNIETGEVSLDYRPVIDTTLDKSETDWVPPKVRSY
# C. elegans complex II (succinate dehydrogenase), sequence (O62215 31-145): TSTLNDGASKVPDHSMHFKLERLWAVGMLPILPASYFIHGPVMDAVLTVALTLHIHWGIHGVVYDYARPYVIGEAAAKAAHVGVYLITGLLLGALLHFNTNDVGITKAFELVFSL
# Description: (§1) Mitochondria were isolated from the following free-living nematode strains: C. elegans—N2, CB3474, ECA882, ECA917, ECA1075, ECA1080; C. briggsae—AF16; P. pacificus—PS312; and P. hermaphrodita—B178. With the exception of the P. hermaphrodita strain B178, adult worms of each strain were grown in bulk through liquid culture to obtain mitochondria in sufficient quantities. Due to poor growth in liquid media, mixed stage populations of P. hermaphrodita were washed off and collected from NGM plates seeded with OP50. The isolation of mitochondria from all free-living nematode strains followed the protocol previously outlined in Burns et al.[24]. In brief, a 1 L saturated culture of E. coli HB101 was concentrated 20-fold in 50 mL complete S-medium. ~500,000 L1 worms synchronized from an embryo preparation performed the day prior were added to the S-media/HB101 suspension and grown to adulthood over the course of 3.5 days at 20 °C with shaking at 165 rpm. Following growth, worms were collected in 10 ×15 mL conical tubes and washed 7 times in M9 buffer. Worm suspensions were then combined into a single 15 mL conical tube and diluted to a final volume of 15 mL with M9 buffer. 1 mL aliquots of worm suspension were then distributed to 15 × 1.5 mL screw-cap microcentrifuge tubes and were pelleted at 500 g for 1 min. Excess M9 was aspirated without disturbing the worm pellet. 600 μL ice-cold isolate buffer A (250 mM sucrose, 10 mM Tris (pH 7.5), 1 mM EDTA, 1 mM PMSF (freshly prepared)) and 300 μL cold glass beads were then added to each tube. Tubes were incubated on ice for 10 min, and the worms were then lysed by bead beating (6 x 30 s, with 1 min cooling intervals). Tubes containing worm lysate were centrifuged at 1,000 g for 10 min at 4 °C and the supernatant was transferred to 15 new microcentrifuge tubes on ice. The tubes were centrifuged a second time at 1,000 g for 10 min at 4 °C and the supernatant was once again transferred to 15 new microcentrifuge tubes on ice. These tubes were then centrifuged at 16,000 g for 10 min at 4 °C. The resulting mitochondrial pellet was washed twice by re-suspension in 300 μL of ice-cold isolate buffer B (250 mM sucrose, 10 mM Tris (pH 7.5), 1 mM EDTA). Following the final wash, isolation buffer was aspirated from each tube and the pellets were flash-frozen in ethanol/dry ice and stored at −80 °C until needed.
# (§2) The enzymatic activities of individual ETC complexes (I-IV) were assessed spectrophotometrically in isolated mitochondria using a Varioskan LUX Multimode plate reader (ThermoFisher Scientific). Mitochondrial pellets previously isolated were thawed on ice and resuspended in ice-cold isolation buffer (250 mM sucrose, 10 mM Tris (pH 7.5), 1 mM EDTA). The BCA assay (Walker, 1994) was used to quantify the protein concentration of mitochondria suspensions; solutions were diluted to a concentration of 0.2 mg/mL for use in all assays. For the complex I assay, mitochondria pellets were freeze-thawed on ice three times to increase enzyme accessibility. […] 20 μL mitochondria suspension was then added/mixed with a pipette to initiate the reaction. Immediately following the addition of mitochondria, absorbance was measured (complex I and II: 600 nm; complex III and IV: 550 nm) in 30 s intervals over 15 min. Enzymatic activity was determined in each reaction by plotting absorbance versus time and calculating the slope of the curve during the initial linear phase of the reaction. […] Percent activity of each complex was calculated by dividing the enzyme-specific activity of each well by the enzyme-specific activity of the corresponding solvent controls.
# Complex II (succinate dehydrogenase) activity was assessed using the DCIP-coupled method previously described in Burns et al.[24].
# For preliminary screens of hit compounds, compounds were screened at 100 μM; data are the average of at least three biological replicates. The complex I and II activity assays were used for additional dose-response experiments.
# [3] = tested on: C. elegans complex III (decylubiquinol-cytochrome C reductase); assay: In vitro complex III activity assay, C. elegans mitochondria; assay type: biochemical, Caenorhabditis elegans; conditions: for % Activity Complex III: 100 µM compound, relative to solvent control, mean (SEM); for Percent in vitro activity, Complex III (single replicate Rep1-Rep4) / Percent in vitro activity, Complex III (Mean): 100 μM of NPD compound, C. elegans mitochondria; for Percent in vitro activity, Complex III (single replicate Rep1-Rep4): individual biological replicates; for Percent in vitro activity, Complex III (Mean): mean of four biological replicates
# Description: as §1, §2
# Antimycin A-sensitive complex III (decylubiquinol-cytochrome C […]) activity was determined by measuring the reduction of cytochrome C (CytC) as optimized in Luo et al.[59]. Decylubiquinol for complex III assays was prepared fresh as described in Janssen and Boyle, 2019[60].
# [4] = tested on: C. elegans complex IV (cytochrome C oxidase); assay: In vitro complex IV activity assay, C. elegans mitochondria; assay type: biochemical, Caenorhabditis elegans; conditions: for % Activity Complex IV: 100 µM compound, relative to solvent control, mean (SEM); for Percent in vitro activity, Complex IV (single replicate Rep1-Rep4) / Percent in vitro activity, Complex IV (Mean): 100 μM of NPD compound, C. elegans mitochondria; for Percent in vitro activity, Complex IV (single replicate Rep1-Rep4): individual biological replicates; for Percent in vitro activity, Complex IV (Mean): mean of four biological replicates
# Description: as §1, §2
# Complex IV (cytochrome C oxidase) activity was determined by following the oxidation of CytC in the protocol outlined by Janssen and Boyle, 2019[60]. Reduced CytC was prepared fresh by adding 1 μL increments of 1 M dithiothreitol to a 1 mM solution of CytC and vortexing. A colour change from brown to orange/pink signals when CytC has been reduced.
# C. elegans = C. elegans chemical screens of RIKEN NPD libraries at 50 μM (hit identification in KCN survival and development/viability assays); assay type: cell-based, Caenorhabditis elegans; conditions: screened at 50 μM in triplicate, KCN = KCN survival assay, Dev. & Viability = development/viability assay
# L1 wild-type C. elegans = conditions: for LC50: caenorhabditis elegans
# HEK293 cells = conditions: read-out: HEK293 Cell Viability Assay LC50; 2 days exposure
smiles,measurement,setting,value
COc1ccc(N=c2cc(-c3ccc(OC)cc3)oc3ccc(O)cc23)cc1 [NPD8034],% Activity Complex I,[1],99.30 (2.57) %
same,"Percent in vitro activity, Complex I (single replicate Rep1-Rep4)",[1],99.316% and 113.812% and 92.579% and 91.475%
same,"Percent in vitro activity, Complex I (Mean)",[1],99.295%
same,% Activity Complex II,[2],89.02 (4.77) %
same,"Percent in vitro activity, Complex II (single replicate Rep1-Rep4)",[2],117.368% and 83.101% and 77.239% and 78.358%
same,"Percent in vitro activity, Complex II (Mean)",[2],89.016%
same,% Activity Complex III,[3],95.08 (1.51) %
same,"Percent in vitro activity, Complex III (single replicate Rep1-Rep4)",[3],95.115% and 96.990% and 101.326% and 86.891%
same,"Percent in vitro activity, Complex III (Mean)",[3],95.080%
same,% Activity Complex IV,[4],96.04 (2.78) %
same,"Percent in vitro activity, Complex IV (single replicate Rep1-Rep4)",[4],88.996% and 91.859% and 90.669% and 112.640%
same,"Percent in vitro activity, Complex IV (Mean)",[4],96.041%
same,Hit Type,C. elegans; hit = modified z-score < −3,KCN
same,LC50,L1 wild-type C. elegans,12 µM
same,CC50,HEK293 cells,11.2 µM
O=C1OC(c2ccccc2)=NC1=CC=Cc1ccccc1 (mixture of isomers) [NPD8298],% Activity Complex I,[1],79.90 (1.23) %
same,"Percent in vitro activity, Complex I (single replicate Rep1-Rep4)",[1],86.721% and 79.429% and 78.427% and 75.015%
same,"Percent in vitro activity, Complex I (Mean)",[1],79.898%
same,% Activity Complex II,[2],110.37 (5.08) %
same,"Percent in vitro activity, Complex II (single replicate Rep1-Rep4)",[2],109.359% and 85.283% and 134.975% and 111.861%
same,"Percent in vitro activity, Complex II (Mean)",[2],110.370%
same,% Activity Complex III,[3],101.94 (2.48) %
same,"Percent in vitro activity, Complex III (single replicate Rep1-Rep4)",[3],91.530% and 111.178% and 95.430% and 109.622%
same,"Percent in vitro activity, Complex III (Mean)",[3],101.940%
same,% Activity Complex IV,[4],108.05 (2.17) %
same,"Percent in vitro activity, Complex IV (single replicate Rep1-Rep4)",[4],99.305% and 106.055% and 106.771% and 120.048%
same,"Percent in vitro activity, Complex IV (Mean)",[4],108.045%
same,Hit Type,C. elegans; hit = modified z-score < −3,KCN
same,"C. elegans L1 relative motility, 3-hour post 200 µM KCN dilution",L1 wild-type C. elegans,0.014
same,LC50,L1 wild-type C. elegans,2.57 µM
same,CC50,HEK293 cells,> 50 µM
Cc1nc2ccc(Br)cc2c2c1CC(C)O2 (racemic) [NP974],Hit Type,C. elegans; hit = modified z-score < −3,KCN/Dev. & Viability
same,LC50,L1 wild-type C. elegans,19 µM
CC1(C#CCN2CCCCCC2)CCC2C(O1)c1ccccc1OC2(C)C (stereo not shown) [NPD5219],Hit Type,C. elegans; hit = modified z-score < −3,Dev. & Viability
same,CC50,HEK293 cells,14.8 µM
"CN[C@@H]1C[C@H]2O[C@@](C)([C@@H]1OC)n1c3ccccc3c3c4c(c5c6ccccc6n2c5c31)C(=O)NC4 [Staurosporine, reference compound]",Hit Type,C. elegans; […],Dev. & Viability
Cc1ccc(N=c2cc(-c3ccc4c(c3)OCO4)oc3ccccc23)cc1C [NPD601],Hit Type,C. elegans; hit = modified z-score < −3,KCN
same,LC50,L1 wild-type C. elegans,13.6 µM
Cc1nc2ccc(Br)cc2c2c1CC(C(C)(Cl)Br)O2 (racemic) [NPD10211],Hit Type,C. elegans; hit = modified z-score < −3,KCN/Dev. & Viability
same,LC50,L1 wild-type C. elegans,14.5 µM
